From paper PMC10385824, “Antiproliferative and Tubulin-Destabilising Effects of 3-(Prop-1-en-2-yl)azetidin-2-Ones and Related Compounds in MCF-7 and MDA-MB-231 Breast Cancer Cells” (Pharmaceuticals, 2023)
Where two headings read alike, the source gives them in different places.

How the values were obtained:
[1] = test system: purified bovine brain tubulin; assay: Tubulin polymerization assay (light scattering, BK006 kit); assay type: biochemical; details: compound at 10 μM; for Fold Reduction in Vmax: relative to vehicle
How it was run: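 Purified bovine brain tubulin (3 mg/mL) in PIPES 80 mM pH 6.9, EGTA, MgCl2, 1 mM GTP, 10% glycerol incubated at 37 °C with compound at 10 µM or vehicle (1% DMSO or EtOH). Assembly followed turbidimetrically at 340 nm; values are means of two independent assays.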

HL-60(TB) = assay: NCI-60 SRB screen, leukemia; assay type: cell-based, human; details: for GI50: Homo sapiens
K-562 = assay: NCI-60 SRB screen, leukemia; assay type: cell-based, human; details: for GI50: Homo sapiens, K562, 48 h
MOLT-4 = assay: NCI-60 SRB screen, leukemia; assay type: cell-based, human; details: for GI50: Homo sapiens
NCI-H226 = assay: NCI-60 SRB screen, non-small cell lung cancer; assay type: cell-based; details: Homo sapiens, NCI-H226, 48 h
NCI-H23 = assay: NCI-60 SRB screen, non-small cell lung cancer; assay type: cell-based, human; details: for GI50: Homo sapiens
NCI-H332M = assay: NCI-60 SRB screen, non-small cell lung cancer; assay type: cell-based; details: Homo sapiens, 48 h
NCI-H460 = assay: NCI-60 SRB screen, non-small cell lung cancer; assay type: cell-based, human; details: for GI50: Homo sapiens
SF295 = assay: NCI-60 SRB screen, CNS cancer; assay type: cell-based, human; details: for GI50: Homo sapiens
SF539 = assay: NCI-60 SRB screen, CNS cancer; assay type: cell-based, human
SNB-19 = assay: NCI-60 SRB screen, CNS cancer; assay type: cell-based, human; details: for GI50: Homo sapiens
SNB-75 = assay: NCI-60 SRB screen, CNS cancer; assay type: cell-based, human; details: for GI50: Homo sapiens
PC-3 = assay: NCI-60 SRB screen, prostate cancer; assay type: cell-based, human; details: for GI50: Homo sapiens
DU-145 = assay: NCI-60 SRB screen, prostate cancer; assay type: cell-based, human; details: for GI50: Homo sapiens
M14 = assay: NCI-60 SRB screen, melanoma; assay type: cell-based, human; details: for GI50: Homo sapiens
SK-MEL-5 = assay: NCI-60 SRB screen, melanoma; assay type: cell-based, human; details: for GI50: Homo sapiens
UACC-62 = assay: NCI-60 SRB screen, melanoma; assay type: cell-based, human; details: for GI50: Homo sapiens
OVCAR-5 = assay: NCI-60 SRB screen, ovarian cancer; assay type: cell-based, human; details: for GI50: Homo sapiens
OVCAR-8 = assay: NCI-60 SRB screen, ovarian cancer; assay type: cell-based, human; details: for GI50: Homo sapiens
NCI/ADR-RES = assay: NCI-60 SRB screen, ovarian cancer; assay type: cell-based, human; details: 48 h; for GI50: Homo sapiens
ACHN = assay: NCI-60 SRB screen, renal cancer; assay type: cell-based, human; details: 48 h; for GI50: Homo sapiens
CAKI-1 = assay: NCI-60 SRB screen, renal cancer; assay type: cell-based, human; details: for GI50: Homo sapiens
TK-10 = assay: NCI-60 SRB screen, renal cancer; assay type: cell-based, human; details: for GI50: Homo sapiens
MDA-MB-231/ATCC = assay: NCI-60 SRB screen, breast cancer; assay type: cell-based, human; details: for GI50 / IC50: Homo sapiens; for IC50: read-out: Antiproliferative Activity IC50
MDA-MB-468 = assay: NCI-60 SRB screen, breast cancer; assay type: cell-based, human; details: for GI50: Homo sapiens
[2] = test system: MCF-7 human breast cancer cells; assay: cells
Method: All biochemical assays were performed in triplicate for the determination of mean values reported. The human breast carcinoma cell line MCF-7 was purchased from the European Collection of Animal Cell Cultures (ECACC) and was cultured in Eagle’s minimum essential medium with 10% fetal bovine serum, 2 mM L-glutamine and 100 μg/mL penicillin/streptomycin. The medium was supplemented with 1% non-essential amino acids. […] All cells were sub-cultured 3 times/week by trypsinisation.
Cells were seeded at a density of 5 × 10^3 cells/well (MCF-7) in triplicate in 96-well plates. […] Cell proliferation for MCF-7 and MDA-MB-231 cells was analysed using the Alamar Blue assay (Invitrogen Corp.). […] Experiments were performed in triplicate on at least three separate occasions.

MALME-3M = assay: NCI-60 SRB screen, melanoma; assay type: cell-based, human; details: MALME-3M, 48 h
SK-MEL-2 = assay: NCI-60 SRB screen, melanoma; assay type: cell-based, human; details: SK-MEL-2, 48 h
[3] = HL-60(TB), five dose 0.01–100 µM, 48 h
[4] = Homo sapiens, five dose 0.01–100 µM, read-out: GI50
[5] = five dose 0.01–100 µM, read-out: GI50
[6] = MCF7, 72 h, read-out: cell viability

SMILES: C=C/C=C/C1C(=O)N(c2cc(OC)c(OC)c(OC)c2)C1c1ccc(OC)c(N)c1 (stereo not shown) [11r, (E)-4-(3-Amino-4-methoxyphenyl)-3-(buta-1,3-dien-1-yl)-1-(3,4,5-trimethoxyphenyl)azetidin-2-one]
- Vmax ([1]; 37 °C, 340 nm): 0.0035 mOD/min
- Fold Reduction in Vmax [1]: 2.0
- GI50 (HL-60(TB); [3]): 29.5 nM
- GI50 (HL-60(TB); HL-60, NCI screen): < 34 nM
- GI50 (K-562): 39.3 nM
- GI50 (MOLT-4; MOLT-4, 48 h): 39.6 nM
- GI50 (NCI-H226): 56.4 nM
- GI50 (NCI-H23; NCI-H23, 48 h): 30 nM
- GI50 (NCI-H332M): 57.9 nM
- GI50 (NCI-H460; NCI-H460, 48 h): 33.2 nM
- GI50 (SF295; SF-295, 48 h): 30.1 nM
- GI50 (SF539; Homo sapiens, SF-539, 48 h): 39 nM
- GI50 (SNB-19; SNB-19, 48 h): 64.9 nM
- GI50 (SNB-75; SNB-75, 48 h): 36.8 nM
- GI50 (PC-3; PC-3, 48 h): 39.2 nM
- GI50 (DU-145; DU-145, 48 h): 26 nM
- GI50 (M14; M14, 48 h): 22.3 nM
- GI50 (SK-MEL-5; SK-MEL-5, 48 h): 22.2 nM
- GI50 (UACC-62; UACC-62, 48 h): 39.6 nM
- GI50 (OVCAR-5; OVCAR-5, 48 h): 93.7 nM
- GI50 (OVCAR-8; OVCAR-8, 48 h): 38.4 nM
- GI50 (NCI/ADR-RES): 19.6 nM
- GI50 (ACHN): 61.4 nM
- GI50 (CAKI-1; CAKI-1, 48 h): 63.1 nM
- GI50 (TK-10; TK-10, 48 h): 74.8 nM
- GI50 (MDA-MB-231/ATCC; MDA-MB-231, 48 h): 31.5 nM
- IC50 (MDA-MB-231/ATCC; MDA-MB-231, 48 h): 33.7 nM
- GI50 (MDA-MB-468; MDA-MB-468, 48 h): 26.7 nM
- IC50 ([2]; MCF7, read-out: Antiproliferative Activity IC50): 36 ± 5 nM

SMILES: C=C(C)C1C(=O)N(c2cc(OC)c(OC)c(OC)c2)C1c1ccc(OC)c(O)c1 (stereo not shown) [9q, 4-(3-Hydroxy-4-methoxyphenyl)-1-(3,4,5-trimethoxyphenyl)-3-(prop-1-en-2-yl)azetidin-2-one]
- Fold Reduction in Vmax [1]: 4.27
- % Growth (HL-60(TB); HL-60(TB), one dose 10 µM, 48 h): -51.24%
- GI50 (HL-60(TB); [3]): 21.1 nM
- GI50 (HL-60(TB); HL-60, NCI screen): < 34 nM
- GI50 (K-562; read-out: GI50): 35.2 nM
- % Growth (K-562; K-562, one dose 10 µM, 48 h): 2.20%
- GI50 (MOLT-4; MOLT-4, five dose 0.01–100 µM, 48 h, read-out: GI50): 20.2 nM
- % Growth (MOLT-4; MOLT-4, one dose 10 µM, 48 h): -15.34%
- GI50 (NCI-H23; NCI-H23, five dose 0.01–100 µM, 48 h, read-out: GI50): 23.7 nM
- % Growth (NCI-H23; NCI-H23, one dose 10 µM, 48 h): 14.46%
- GI50 (NCI-H332M; […], five dose 0.01–100 µM, read-out: GI50): 47.7 nM
- GI50 (NCI-H460; NCI-H460, five dose 0.01–100 µM, 48 h, read-out: GI50): 30 nM
- % Growth (NCI-H460; NCI-H460, one dose 10 µM, 48 h): 3.52%
- GI50 (SF295; SF-295, SF295, five dose 0.01–100 µM, 48 h, read-out: GI50): < 10 nM
- % Growth (SF295; SF-295, one dose 10 µM, 48 h): 20.26%
- % Growth (SF539; SF-539, one dose 10 µM, 48 h): -8.30%
- GI50 (SNB-19; SNB-19, five dose 0.01–100 µM, 48 h, read-out: GI50): 58.8 nM
- % Growth (SNB-19; SNB-19, one dose 10 µM, 48 h): 37.93%
- GI50 (SNB-75; SNB-75, five dose 0.01–100 µM, 48 h, read-out: GI50): 47.3 nM
- % Growth (SNB-75; SNB-75, one dose 10 µM, 48 h): 41.90%
- GI50 (PC-3; PC-3, five dose 0.01–100 µM, 48 h, read-out: GI50): 20.1 nM
- % Growth (PC-3; PC-3, one dose 10 µM, 48 h): 27.31%
- % Growth (DU-145; DU-145, one dose 10 µM, 48 h): -52.00%
- GI50 (DU-145; DU-145, five dose 0.01–100 µM, 48 h, read-out: GI50): 21.5 nM
- GI50 (MALME-3M; [4]): 20500 nM
- % Growth (MALME-3M; one dose 10 µM): 63.23%
- GI50 (M14; M14, five dose 0.01–100 µM, 48 h, read-out: GI50): 17.3 nM
- % Growth (M14; M14, one dose 10 µM, 48 h): 3.41%
- GI50 (SK-MEL-2; [4]): 44.6 nM
- % Growth (SK-MEL-2; one dose 10 µM): 9.55%
- GI50 (SK-MEL-5; SK-MEL-5, five dose 0.01–100 µM, 48 h, read-out: GI50): 12.4 nM
- % Growth (SK-MEL-5; SK-MEL-5, one dose 10 µM, 48 h): -0.90%
- GI50 (UACC-62; UACC-62, five dose 0.01–100 µM, 48 h, read-out: GI50): < 10 nM
- % Growth (UACC-62; UACC-62, one dose 10 µM, 48 h): 38.81%
- GI50 (OVCAR-5; OVCAR-5, five dose 0.01–100 µM, 48 h, read-out: GI50): 49.4 nM
- % Growth (OVCAR-5; OVCAR-5, one dose 10 µM, 48 h): 44.67%
- GI50 (OVCAR-8; OVCAR-8, five dose 0.01–100 µM, 48 h, read-out: GI50): < 10 nM
- % Growth (OVCAR-8; OVCAR-8, one dose 10 µM, 48 h): 14.64%
- GI50 (NCI/ADR-RES; [5]): < 10 nM
- % Growth (NCI/ADR-RES; one dose 10 µM): -2.95%
- GI50 (ACHN; [5]): 21.3 nM
- % Growth (ACHN; one dose 10 µM): 34.94%
- % Growth (CAKI-1; CAKI-1, one dose 10 µM, 48 h): 44.03%
- GI50 (CAKI-1; CAKI-1, five dose 0.01–100 µM, 48 h, read-out: GI50): 30.8 nM
- GI50 (TK-10; TK-10, five dose 0.01–100 µM, 48 h, read-out: GI50): 53.4 nM
- % Growth (TK-10; TK-10, one dose 10 µM, 48 h): 46.63%
- GI50 (MDA-MB-231/ATCC; MDA-MB-231/ATCC, five dose 0.01–100 µM, 48 h, read-out: GI50): 16.8 nM
- IC50 (MDA-MB-231/ATCC; MDA-MB-231, obtained from NCI, five concentrations 0.01–100 μM, 48 h): 23.9 nM
- % Growth (MDA-MB-231/ATCC; MDA-MB-231/ATCC, one dose 10 µM, 48 h): -6.67%
- GI50 (MDA-MB-468; MDA-MB-468, five dose 0.01–100 µM, 48 h, read-out: GI50): < 10 nM
- % Growth (MDA-MB-468; MDA-MB-468, one dose 10 µM, 48 h): 13.36%
- IC50 ([2]; MCF7): 10 nM
- IC50 ([2]; MCF7, 72 h): 12 nM
- viability at 0.1 µM [2, 6]: 22%
- viability at 1 µM [2, 6]: 21%
- viability at 10 µM [2, 6]: 11%
